# Test results as given in US5157020A, “Synthetic senescent cell antigen” (Research Corporation Tech., Inc., priority 1990, dated 1992).
# Entries after “also recorded” stand apart in the source; their conditions may differ. Where a SMILES comes first, the peptide text is derived from it.
# Key:
# senescent cell IgG [1] = test: IgG binding and inhibition assay (competitive inhibition of senescent cell IgG binding to stored erythrocytes, 125I-Protein A); parameters: species or system human; conditions: for INHIBITION (%) of senescent cell IgG binding: Table 1, peptides 300 ug, senescent cell IgG 3 ug, 90 mins at room temperature, mean ± 1 SD of quadruplicate samples; for inhibition of senescent cell IgG binding (in words): competitive inhibition assay; for INHIBITION (%) of senescent cell IgG binding to erythrocytes, before or after DIDS modification: Table 4, 30 ug, stored red cells, ± SD, unmodified ANION 1 and COOH from a separate experiment
# Protocol: IgG binding and inhibition assay. IgG was isolated from senescent RBC from 50 liters of blood and purified with Protein A Sepharose as previously described (2, 4). IgG eluted from senescent cells (SCIgG), rather than serum IgG, was used because normal serum contains antibodies to spectrin, actin, 2.1, etc. (28). Competitive inhibition studies were performed using synthetic peptides to absorb the IgG isolated from senescent erythrocytes. Intact dimeric, senescent cell IgG containing the Fc portion binds to senescent cells in situ and initiates their removal (1-7, 30). Fab fragments were not used because we were simulating the physiological situation. IgG isolated from aged erythrocytes binds specifically to senescent cells. […] Moreover, the specific binding capacity of the autoantibody was eliminated by absorption with purified senescent cell antigen (SCA; 7). […] Storage mimics normal aging in situ immunologically and biochemically (1-7, 30). The number of red cell-bound IgG molecules was quantitated before and after absorption using equilibrium binding kinetics (7, 30, 31). Details of the methods are given elsewhere (27). Percent inhibition was calculated from the following formula: 100[1-(x-b/T-b)] where x=molecules of IgG autoantibody bound per cell; T=total number of IgG antibody molecules bound in the absence of inhibitor; b=background Protein A binding.
# Competitive inhibition studies were performed using synthetic peptides to absorb the IgG isolated from senescent erythrocytes. IgG binding and inhibition were determined with a protein A binding assay. This biological assay measures the fate of erythrocytes in vitro and in vivo (1, 2, 4).
# IgG binding and inhibition assay. Competitive inhibition studies were performed using synthetic peptides to absorb the IgG isolated from senescent erythrocytes. This is the same IgG that initiates phagocytosis in situ. The Fc portion IgG is required for binding and phagocytosis of cells by macrophages (3, 2, 4, 7, 29). Fab fragments were not used because we were simulating the physiological situation. Intact dimeric, senescent cell IgG containing the Fc portion binds to senescent cells in situ and initiates their removal (3, 32, 2, 4, 6, 17, 7). Only IgG isolated from aged erythrocytes binds specifically to senescent cells. […] Moreover, the specific binding capacity of the autoantibody was eliminated by absorption with purified senescent cell antigen (39). […] Storage mimics normal aging in situ immunologically and biochemically (32, 2, 4, 6, 29, 7). After incubation with absorbed IgG, cells were washed four times with 40-50 volumes of phosphate buffered saline containing 0.2% bovine serum albumin (BSA, fraction V, Sigma, St. Louis, Mo.) and 0.5% glucose. Washed cells were transferred to BSA-coated tubes (5×10^7 cells/50 ul) and incubated for 30 min. at 37° C. with ^125 I-Protein A (Amersham, Arlington Heights, Ill. 30-38 mCi/mg, 10-15 ng/tube). Cells were then washed four times and transferred to new tubes before counting in a gamma scintillation counter (Beckman, Gamma 5,500). The number of red cell-bound IgG molecules was quantitated before and after absorption using equilibrium binding kinetics (7).
# Scatchard analysis was performed. Scathard, NY Acad. Sci. 51:660-672 (1949), incorporated herein by reference. Percent inhibition was calculated from the following formula: 100[1-(x-b/T-b)] where x=molecules of IgG autoantibody bound per cell; T=total number of IgG antibody molecules bound in the absence of inhibitor; b=background Protein A binding.
# senescent cell IgG [2] = test: Immunoblotting of synthetic peptides with IgG autoantibody from senescent erythrocytes; assay type: binding, human; conditions: autoradiograph of immunoblot, FIG. 4
# Protocol: Sodium dodecyl sulfate (NaDodSO4) polyacrylamide gel electrophoresis and immunostaining of peptides. Peptides were analyzed on 6-25% or 12-25% linear gels (6, 7, 27-29). Immunoautoradiography was performed by immunoblotting as described previously (6, 7, 28-30). Immunoblots were exposed to Kodak Ortho G (OG-1) film at -70° C. using our standard procedures (30, 45).
# We used immunoblotting of the peptides followed by reaction with IgG eluted from senescent red cells (SCIgG) to localize the aging antigen site (FIG. 4A and B). We also used the IgG binding and inhibition assay at a singe concentration of peptide and performed Scatchard analysis (Table 2). […] Peptides that were negative by immunoblotting were also negative in the inhibition assay (FIG. 4 and Table 2).
# [3] = system: erythrocyte anion transport; test: Peptide inhibition of sulfate influx (anion transport) in erythrocytes; assay type: cell-based, human; conditions: for inhibition of anion transport (in words): equimolar amounts of peptide and sulfate
# Protocol: Anion transport and DIDS inhibition measurements. Sulfate exchange is inhibited by […]. Stilbenedisulfonate derivatives such as DIDS inhibit anion transport by binding to at least two lysine residues in the membrane-spanning region of band 3 (45, 23, 35).
# Peptide inhibition of sulfate "influx" experiments were performed essentially according to method of Jennings (46) using 300 mM sucrose, 10 mM Tris-HEPES, pH 7.0, as the "influx" buffer (47). Washed cells were incubated in 20-30 volumes of 110 mM K2 SO4 for 10 min at 37° C. to replace intracellular chloride. The cells were centrifuged and the supernatant removed and replaced with 110 mM K2 SO4 for 10 min. This was repeated 3 times. After the last centrifugation, cells were resuspended 300 mM sucrose, 10 mM Tris-HEPES, pH 7.0, and washed once. Cells were suspended to 2×10^8 cells/ml in 2 ml influx buffer at 37° C. Radioactive sulfate (0.01 mM) was added (582 mCi/mM) at suitable time intervals. Samples were taken and added to 18 volumes of ice cold 1.15% KCl (154 mM KCl) buffered to pH 7.4 with MOPS ("wash buffer"). The high chloride concentration, temperature, and pH all inhibit sulfate transport. Cells were washed twice to remove external sulfate at 0° C. with wash buffer. All samples were deproteinized with trichloracetic acid (final concentration 6.7%) and counted with Ready-Solv HP/6 (Beckman, Fullerton, Calif.) in a liquid scintillation counter. For peptide inhibition of sulfate transport, 0.01 mM of peptide(s) were added to the radioactive sulfate prior to addition to cells suspended in influx buffer.
# [4] = Solubility of peptides in physiologic solutions; assay type: physicochemical; conditions: even when coupled to BSA
# Protocol: Peptides. Peptides were prepared by solid phase synthesis using an Applied Biosystems 430A automatic peptide synthesizer. They were analyzed by amino acid analysis, HPLC, sequencing, and/or FABS to determine purity. Amino acids are referred to by the standard single letter code. Peptides that are not soluble in phosphate buffered saline were dissolved in 1-2% NaDodSO4. Others were solubilized in acetic acid or trifluoroacetic acid, and sodium dodecyl sulfate (1-2%) is added. Once the peptides were in solution, they were conjugated to ovalbumin (5X crystallized) or BSA with 0.02% glutaraldehyde (32). The reaction was allowed to proceed for 30-60 min. blocked with ethanolamine, and the conjugate dialysed against PBS in tubing with a molecular weight cut off of ≤1000.
# [5] = at concentrations up to / as high as 100 ug
# [6] = equimolar peptide and sulfate (0.01 mM)
solubility [4],Compound,INHIBITION (%) of senescent cell IgG binding (senescent cell IgG [1]) [%],inhibition of senescent cell IgG binding (in words) (senescent cell IgG [1]),binding of senescent cell IgG to peptide in immunoblots (senescent cell IgG [2]),inhibition of anion transport (in words) [3],also measured
,"AGVANQLLDRFIFEDQ [CYTO, reference compound]",0,does not inhibit,,,
,SKLIKIFQDHPLQKTYN [ANION 1],88 ± 7,inhibitory over a range of 3 to 100 ug,trace binding,does not inhibit anion transport,"INHIBITION (%) of senescent cell IgG binding to erythrocytes, before or after DIDS modification (senescent cell IgG [1]): 32 ± 2%; inhibition of senescent cell IgG binding (senescent cell IgG [1]; [5]): ≤ 50%; inhibition of anion transport [3, 6]: 8±7%"
,LRKFKNSSYFPGKLR [ANION 2],30 ± 12,only slightly inhibitory; also recorded: only weakly inhibitory,bound,,"inhibition of anion transport [3, 6]: 38±4%"
,"FKPPKY (UniProt P02730 813-818, looked up, fragment) [N6]",,,,potent inhibitors of anion transport,"inhibition of senescent cell IgG binding (senescent cell IgG [1]; at 10 ug): 48±1%; inhibition of senescent cell IgG binding (senescent cell IgG [1]; at 10 ug, listed as COOH hexamer (N6)): ~ 50%"
,YHPDVPYVKR [818-827],,,,,"percent inhibition of senescent cell IgG binding (senescent cell IgG [1]; FIG. 2 legend, 12.2 ug): 54±7; inhibition of senescent cell IgG binding (senescent cell IgG [1]; at 30 ug): 54±3%"
,QKLSVPDGFKVSNSSARGW [GLYCOS],,only weakly inhibitory,Binding of antibody,,"INHIBITION (%) of senescent cell IgG binding to erythrocytes (senescent cell IgG [1]; Table 2, all peptides tested at 30 ug, ± standard deviation): 9 ± 0%"
not completely soluble,"CC[C@H](C)[C@H](NC(=O)CNC(=O)[C@H](CO)NC(=O)[C@H](CC(C)C)NC(=O)[C@H](CO)NC(=O)[C@@H](NC(=O)[C@@H](NC(=O)CNC(=O)[C@H](CCSC)NC(=O)[C@H](Cc1ccc(O)cc1)NC(=O)[C@H](CC(C)C)NC(=O)[C@H](Cc1ccccc1)NC(=O)[C@@H](NC(=O)CNC(=O)[C@@H](N)Cc1ccccc1)[C@@H](C)CC)C(C)C)[C@@H](C)O)C(=O)N[C@@H](CCC(N)=O)C(=O)N[C@@H](CC(C)C)C(=O)O [789-805, FGIFLYMGVTSLSGIQL] (H-FGIFLYMGVTSLSGIQL-OH)",,,,,
not completely soluble,"CC[C@H](C)[C@H](NC(=O)CNC(=O)[C@H](CO)NC(=O)[C@@H](N)CC(C)C)C(=O)N[C@@H](CCC(N)=O)C(=O)N[C@@H](CC(C)C)C(=O)N[C@@H](Cc1ccccc1)C(=O)N[C@@H](CC(=O)O)C(=O)N[C@@H](CCCNC(=N)N)C(=O)N[C@H](C(=O)N[C@@H](CC(C)C)C(=O)N[C@@H](CC(C)C)C(=O)N[C@@H](CC(C)C)C(=O)N[C@@H](Cc1ccccc1)C(=O)N[C@@H](CCCCN)C(=O)N1CCC[C@H]1C(=O)N1CCC[C@H]1C(=O)N[C@@H](CCCCN)C(=O)N[C@@H](Cc1ccc(O)cc1)C(=O)O)[C@@H](C)CC [800-818, LSGIQLFDRILLLFKPPKY] (H-LSGIQLFDRILLLFKPPKY-OH)",,,,,
not completely soluble,"CC[C@H](C)[C@H](NC(=O)CNC(=O)[C@H](Cc1ccccc1)NC(=O)[C@H](CC(C)C)NC(=O)[C@@H](NC(=O)[C@H](C)NC(=O)[C@H](CC(C)C)NC(=O)[C@@H]1CCCN1C(=O)[C@@H](NC(=O)[C@H](CCCNC(=N)N)NC(=O)[C@H](CO)NC(=O)[C@H](CC(C)C)NC(=O)[C@@H](NC(=O)[C@@H]1CCCN1C(=O)[C@H](CCC(=O)O)NC(=O)[C@@H](N)CCSC)[C@@H](C)CC)[C@@H](C)CC)C(C)C)C(=O)N[C@@H](Cc1ccccc1)C(=O)N[C@@H](CC(C)C)C(=O)O [776-793, MEPILSRIPLAVLFGIFL] (H-MEPILSRIPLAVLFGIFL-OH)",,,,,
,LFKPPKYHPDVPYVKR [COOH],99 ± 1,inhibitory over a range of 3 to 100 ug,binding,potent inhibitors of anion transport,"INHIBITION (%) of senescent cell IgG binding to erythrocytes, before or after DIDS modification (senescent cell IgG [1]): 20 ± 1%; inhibition of senescent cell IgG binding (senescent cell IgG [1]; [5]): ≤ 50%; inhibition of anion transport ([3]; at 5 min, FIG. 7, compared to control without peptide): 52±3%"
